Patent US8741897B2, “Glucocorticoid mimetics, methods of making them, pharmaceutical compositions and uses thereof” (Boehringer Ingelheim Pharmaceuticals Inc., priority 2003, dated 2014)

test system: glucocorticoid receptor function; assay: one or more of the above assays (GR binding and glucocorticoid receptor cell assays: aromatase, IL-6, TAT, MMTV-Luc, IL-8, ICAM-Luc); assay type: cell-based; conditions: assay not specified per compound

| Molecule | activity as agonists of the glucocorticoid receptor function in one or more of the above assays |
| --- | --- |
| 4-Pyrimidin-5-yl-2-[4,4,4-trifluoro-3-hydroxy-1,1-dimethyl-3-(1H-pyrrolo[2,3-c]pyridin-ylmethyl)butyl]phenol | potent agonists |
| COc1ccc(-c2ccccc2)cc1C(C)(C)CC(O)(Cc1cc2cc(N3CCCCC3)ncc2[nH]1)C(F)(F)F (stereo not drawn) [1,1,1-Trifluoro-4-(4-methoxybiphenyl-3-yl)-4-methyl-2-(5-piperidin-1-yl-1H-pyrrolo[2,3-c]pyridin-2-ylmethyl)pentan-2-ol] | potent agonists |
| COc1ccc(-c2ccccc2C#N)cc1C(C)(C)CC(O)(Cc1cc2cc(N3CCCCC3)ncc2[nH]1)C(F)(F)F (stereo not drawn) [4′-Methoxy-3′-[4,4,4-trifluoro-3-hydroxy-1,1-dimethyl-3-(5-piperidin-1-yl-1H-pyrrolo[2,3-c]pyridin-2-ylmethyl)butyl]biphenyl-2-carbonitrile] | potent agonists |
| CC(C)(CC(O)(Cc1cc2cc(Cl)ncc2[nH]1)C(F)(F)F)c1cc(Cl)cc2c1OCC2 (stereo not drawn) [4-(5-Chloro-2,3-dihydrobenzofuran-7-yl)-2-(5-chloro-1H-pyrrolo[2,3-c]pyridin-2-ylmethyl)-1,1,1-trifluoro-4-methylpentan-2-ol] | potent agonists |
| CC(C)(CC(O)(Cc1cc2cc(Cl)ncc2[nH]1)C(F)(F)F)c1cc(F)ccc1O (stereo not drawn) [2-[3-(5-Chloro-1H-pyrrolo[2,3-c]pyridin-2-ylmethyl)-4,4,4-trifluoro-3-hydroxy-1,1-dimethylbutyl]-4-fluorophenol] | potent agonists |
| CC(C)(CC(O)(Cc1cc2cc(-c3ccccc3)ncc2[nH]1)C(F)(F)F)c1cccc(CN2CCOCC2)c1 (stereo not drawn) [1,1,1-Trifluoro-4-methyl-4-(3-morpholin-4-ylmethylphenyl)-2-(5-phenyl-1H-pyrrolo[2,3-c]pyridin-2-ylmethyl)pentan-2-ol] | potent agonists |
| COc1ccc(-c2cncnc2)cc1C(C)(C)CC(O)(Cn1ccc2c1CCCC2=O)C(F)(F)F (stereo not drawn) [1-[2-Hydroxy-4-(2-methoxy-5-pyrimidin-5-ylphenyl)-4-methyl-2-trifluoromethylpentyl]-1,5,6,7-tetrahydroindol-4-one] | agonists |
| COc1ccc(F)cc1C(C)(C)CC(O)(Cc1cc2nc(N3CCCC3)ncc2[nH]1)C(F)(F)F (stereo not drawn) [1,1,1-Trifluoro-4-(5-fluoro-2-methoxyphenyl)-4-methyl-2-(2-pyrrolidin-1-yl-5H-pyrrolo[3,2-d]pyrimidin-6-ylmethyl)pentan-2-ol] | potent agonists |
| COc1ccc(-c2ccccc2C#N)cc1C(C)(C)CC(O)(Cc1cc2c(C)cncc2[nH]1)C(F)(F)F (stereo not drawn) [4′-Methoxy-3′-[4,4,4-trifluoro-3-hydroxy-1,1-dimethyl-3-(4-methyl-1H-pyrrolo[2,3-c]pyridin-2-ylmethyl)butyl]biphenyl-2-carbonitrile] | potent agonists |
| CCN(C)c1cc2cc(CC(O)(CC(C)(C)c3cc(F)ccc3OC)C(F)(F)F)[nH]c2cn1 (stereo not drawn) [2-[5-(Ethylmethylamino)-1H-pyrrolo[2,3-c]pyridin-2-ylmethyl]-1,1,1-trifluoro-4-(5-fluoro-2-methoxyphenyl)-4-methylpentan-2-ol] | potent agonists |
| CC(C)(CC(O)(Cc1cc2nc(CN3CCOCC3)ccc2[nH]1)C(F)(F)F)c1cc(Cl)ccc1O (stereo not drawn) [4-Chloro-2-[4,4,4-trifluoro-3-hydroxy-1,1-dimethyl-3-(5-morpholin-4-ylmethyl-1H-pyrrolo[3,2-b]pyridin-2-ylmethyl)butyl]phenol] | potent agonists |
| CC(C)(CC(O)(Cc1cc2cc(-c3ccccc3)nnc2[nH]1)C(F)(F)F)c1ccccc1 (stereo not drawn) [1,1,1-Trifluoro-4-methyl-4-phenyl-2-(3-phenyl-7H-pyrrolo[2,3-c]pyridazin-6-ylmethyl)pentan-2-ol] | potent agonists |
| Cc1cncc2[nH]c(CC(O)(CC(C)(C)c3cccc(F)c3)C(F)(F)F)cc12 (stereo not drawn) [1,1,1-Trifluoro-4-(3-fluorophenyl)-4-methyl-2-(4-methyl-1H-pyrrolo[2,3-c]pyridin-2-ylmethyl)pentan-2-ol] | potent agonists |
| CC(C)Oc1cc2cc(CC(O)(CC(C)(C)c3cccc(F)c3)C(F)(F)F)[nH]c2cn1 (stereo not drawn) [1,1,1-Trifluoro-4-(3-fluorophenyl)-2-(5-isopropoxy-1H-pyrrolo[2,3-c]pyridin-2-ylmethyl)-4-methylpentan-2-ol] | potent agonists |
| Cc1ccc(F)cc1C(C)(C)CC(O)(Cc1cc2cnccc2[nH]1)C(C)C (stereo not drawn) [5-(5-Fluoro-2-methylphenyl)-2,5-dimethyl-3-(1H-pyrrolo[3,2-c]pyridin-2-ylmethyl)hexan-3-ol] | agonists |
| COc1cc(F)ccc1C(C)(C)CC(O)(Cc1[nH]c2cnccc2c1C)C(F)(F)F (stereo not drawn) [1,1,1-Trifluoro-4-(4-fluoro-2-methoxyphenyl)-4-methyl-2-(3-methyl-1H-pyrrolo[2,3-c]pyridin-2-ylmethyl)pentan-2-ol] | potent agonists |
| CC(C)(CC(O)(Cc1cc2cc(N3CCOCC3)ncc2[nH]1)C(F)(F)F)c1cccc(F)c1 (stereo not drawn) [1,1,1-Trifluoro-4-(3-fluorophenyl)-4-methyl-2-(5-morpholin-4-yl-1H-pyrrolo[2,3-c]pyridin-2-ylmethyl)pentan-2-ol] | potent agonists |
| Cc1c(CC(O)(CC(C)(C)c2cc(Cl)cc3c2OCC3)C(C)C)[nH]c2cnccc12 (stereo not drawn) [5-(5-Chloro-2,3-dihydrobenzofuran-7-yl)-2,5-dimethyl-3-(3-methyl-1H-pyrrolo[2,3-c]pyridin-2-ylmethyl)hexan-3-ol] | agonists |
| Cc1c(CC(O)(CC(C)(C)c2cc(-c3cccnc3)ccc2O)C(F)(F)F)[nH]c2cnccc12 (stereo not drawn) [4-Pyridin-3-yl-2-[4,4,4-trifluoro-3-hydroxy-1,1-dimethyl-3-(3-methyl-1H-pyrrolo[2,3-c]pyridin-2-ylmethyl)butyl]phenol] | potent agonists |
| CC(C)Oc1cc2cc(CC(O)(CC(C)(C)c3cc(-c4ccccc4)cc4c3OCC4)C(F)(F)F)[nH]c2cn1 (stereo not drawn) [1,1,1-Trifluoro-2-(5-isopropoxy-1H-pyrrolo[2,3-c]pyridin-2-ylmethyl)-4-methyl-4-(5-phenyl-2,3-dihydrobenzofuran-7-yl)pentan-2-ol] | potent agonists |
| CC(C)(CC(O)(Cc1cc2cc(N3CCCCC3)ncc2[nH]1)C(F)(F)F)c1ccccc1 (stereo not drawn) [1,1,1-Trifluoro-4-methyl-4-phenyl-2-(5-piperidin-1-yl-1H-pyrrolo[2,3-c]pyridin-2-ylmethyl)pentan-2-ol] | potent agonists |
